System: human triple negative breast cancer BC408 subcutaneous xenograft tumor model
Test: In vivo pharmacodynamic study on triple negative breast cancer patient-derived xenograft (PDX) subcutaneous tumor model
Design: species or system nude mice
Details: for TGI: TGI=1-T/C from relative tumor volumes
Method: The tumor masses were inoculated into the right back of the mice, the animals were weighed before administration, and tumor volumes were measured. Grouping was designed in blocks according to the tumor volume, with 8 mice per group except for the vehicle control, which contained 6 mice.
Administration was carried out as in Table 3 below.
Animals were monitored daily for health status and mortality, body weight and tumor volume were measured twice a week, and samples were collected after the last administration. […] T/C % is the relative tumor proliferation rate, i.e., the percentage of the relative tumor volume in the treatment and control groups at a given time point. T and C are relative tumor volumes (RTVs) of the treatment and control groups at a given time point, respectively. The calculation formula is as follows: T/C %=TRTV/CRTV×100% (TRTV: mean RTV for treatment group; CRTV: mean RTV for vehicle control group; RTV=Vt/V0, wherein V0 is the tumor volume of the animal at the time of grouping, and Vt is the tumor volume of the animal after treatment).

[1] = BC408 PDX in female nude mice, compound 29 15 mg/kg oral Qd*5 days/week, paclitaxel injection 25 mg/kg intraperitoneal Qw, 5 weeks

SMILES | TGI [1] | Tumor volume [1] | Inhibitory effect on the triple negative breast cancer PDX subcutaneous tumor model (in words) (BC408 PDX, doses as in Table 3)
CC(=O)O[C@H]1C(=O)[C@@]2(C)[C@H]([C@H](OC(=O)c3ccccc3)[C@]3(O)C[C@H](OC(=O)[C@H](O)[C@@H](NC(=O)c4ccccc4)c4ccccc4)C(C)=C1C3(C)C)[C@]1(OC(C)=O)CO[C@@H]1C[C@@H]2O [Paclitaxel, paclitaxel, reference compound] | 58% |  | 
Cc1[nH]nc2c1N=C(c1ccccc1Cl)c1cnc(N3CCOCC3)cc1N2 [Compound 29] | 72% | 666 mm^3 | significant inhibitory effect

From US20240245704A1, “PHARMACEUTICAL COMPOSITION AND USE OF MULTI-KINASE INHIBITOR” (TRANSTHERA SCIENCES (NANJING), INC., priority 2021, published 2024)
